# Assay results from BindingDB's records for doi:10.1021/acs.jmedchem.5b01331 (2016).
# Test: Antagonist activity at recombinant human GPR55 expressed in HEK293 cells assessed as inhibition of LPI mediated receptor activation by measuring LPI EC50 after 5 mins by xCELLigence assay (Rvb = 1.6 to 4.1 nM)
row,Structure (SMILES),EC50 [nM]
1,COc1ccc2c(c1)OC(C)(C)c1cn(CCN3CCN(C(=O)C4CCCO4)CC3)nc1-2 (centres undefined),25
2,COc1ccc2c(c1)OC(C)(C)c1cn(CCN3CCN(C(=O)c4ccccc4)CC3)nc1-2,16
3,COc1ccc(N2CCN(CC(=O)NCn3ncc4c3-c3ccc(OC)cc3OC4(C)C)CC2)cc1,27
4,COc1ccc2c(c1)OC(C)(C)c1cn(CNC(=O)CN3CCN(c4cccc(C)c4C)CC3)nc1-2,30
5,COc1ccc2c(c1)OC(C)(C)c1cn(CNC(=O)CN3CCN(c4ccccc4OC)CC3)nc1-2,28
6,COc1ccc2c(c1)OC(C)(C)c1cn(CNC(=O)CN3CCN(c4ccccc4)CC3)nc1-2,32
7,COc1ccc2c(c1)OC(C)(C)c1cnn(CNC(=O)CN3CCN(c4ccccc4)CC3)c1-2,28
8,COc1ccc2c(c1)OC(C)(C)c1cnn(CCN3CCN(C(=O)c4cccs4)CC3)c1-2,29
9,COc1ccc2c(c1)OC(C)(C)c1cnn(CCN3CCN(C(=O)c4ccco4)CC3)c1-2,20
